Tests used:
[1] = system: hPF4/FcγRIIA double transgenic mice given KKO; assay: Therapeutic intervention in the murine HIT model (platelet counts after KKO); type: in vivo, mouse
Experimental: Transgenic mice expressing different amounts of hPF4 mRNA per platelet have been described previously (26). Three lines bearing 1, 6 and 22 copy numbers of the human PF4 gene/haplotype were used. […] Transgenic mice expressing FcγRIIA were generously provided by Steven McKenzie, Thomas Jefferson University (30) and crossbred with these hPF4 mice. All murine lines were backcrossed onto the C57BL/6J background>8 times. Genomic makeup of mice was determined by PCR analysis using oligonucleotide primers described previously (26,30). Controls included littermates transgenic for hPF4 or FcγRIIA only. Mice were 6-10 weeks of age at the time of study. Total platelet hPF4 levels in the various transgenic hPF4 lines were determined using an Asserachrom PF4 kit (Diagnostica Stago) as per the manufacturer using recombinant hPF4 as the standard. Mouse blood was obtained by retroorbital puncture. The plate was read at 450 nm in a THERMOmax microplate reader (Molecular Devices). Measurements of surface KKO binding in vivo in WT and the hPF4 transgenic mice were determined after IV injection of 20 μg of FITC-labeled KKO in 200 μL of sterile PBS via the tail vein followed by withdrawal of 50 μL of blood from the retroorbital plexus 10 min later. The blood was coimmunostained for CD41, and KKO binding to CD41-positive cells was estimated by flow cytometry. In other studies, KKO was injected intraperitoneally (IP) in a final volume of 200 μL diluted with sterile PBS. Porcine heparin (200 μL of 100 U/mL stock; Abbott Laboratories) was injected subcutaneously (SQ) in a subgroup of studied animals beginning at 24 hrs for 4 consecutive days. Complete blood counts were measured in 50 μl of whole blood obtained by retroorbital puncture into Safe-T-Fill® minicapillary blood collection tubes (Kabe Labortechnik). Platelets were enumerated using an automatic cell counter (HEMAVET, Drew Scientific). In the therapeutic intervention studies, either porcine heparin (100 U/kg) or protamine sulfate (2 mg/kg) were injected IV over 2 mins. KKO (200 μg) was given IP 1 hr later (zero time point). Injection of heparin or protamine was repeated 21 and 45 hr later. Blood counts were determined as above.
Platelet counts between groups were compared using the Student's t-test. Statistical analyses were performed using Graph Pad Prism (Graphpad Software). Differences were considered significant at a p value of <0.05.

[2] = target: T1, hPF4 bound to surface GAGs of murine platelets (Homo sapiens, UniProt P02776); assay: KKO binding to murine platelets in the presence of hPF4 (flow cytometry); design: species or system mouse; settings: mPF4 null platelets, enzyme 0-5 U/ml, 37° C., 30 min
T1 construct: made in house; host or cells: E. coli BL21DE30 pLysS, pT7-7 plasmid
T1 sequence (P02776 32-101): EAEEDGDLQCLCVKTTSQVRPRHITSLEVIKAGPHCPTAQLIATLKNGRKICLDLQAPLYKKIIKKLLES
Experimental: Studies were performed using human platelets or platelets from WT and transgenic mice (see below for the description of the mice). Human blood was collected after informed consent from healthy, aspirin-free volunteers in acid citrate dextrose (ACD, pH 4.5, 10:1, vol/vol) under a protocol approved by the Institutional Review Board for Studies involving Human Subjects of the Children's Hospital of Philadelphia. All studies involving mice were approved by the same Institution's Institute Animal Care and Use Committee. Blood was centrifuged at 200 g for 15 min at room temperature (RT) to generate platelet-rich plasma (PRP). PGE1 (final concentration 1 μg/mL, Sigma) was added to the PRP to prevent spontaneous platelet activation. […] Total immunodetectable platelet hPF4 was determined using murine platelets completely deficient in murine PF4 (mPF4 null (29)). […] Autoradiograpic bands over the linear range of exposure were analyzed on a UMAX Vista-58 scanner, and the data analyzed by developing a histogram of the calculated density using the NIH program ImageJ (rsb.info.nih.gov). Total surface PF4 binding was also detected using mPF4 null platelets after paraformaldehyde crosslinking, as above. […] FITC-labeled KKO (50 μg/mL) was added for 15 min, the sample was diluted 1/10 with Tyrode's buffer and antibody binding was measured by flow cytometry as above. […]

[3] = hPF4Mid/FcγRIIA+ mice, heparin 100 U/kg or protamine sulfate 2 mg/kg IV 1 hr before 200 μg KKO IP

protamine sulfate
Effect on KKO-induced thrombocytopenia ([1]; hPF4High/FcγRIIA+ mice, heparin 100 U/kg or protamine sulfate 2 mg/kg IV): retained its efficacy
Platelet counts versus mice receiving antibody alone at 24 and 48 hr ([1]; hPF4High/FcγRIIA+ mice, protamine sulfate 2 mg/kg IV): significantly higher
Effect on KKO-induced thrombocytopenia at 3 hr [1, 3]: prevented thrombocytopenia
Effect on KKO-induced thrombocytopenia at 24 hr [1, 3]: decreased the severity of thrombocytopenia
Platelet counts after repeat doses on the second and third days ([1]; hPF4Mid/FcγRIIA+ mice, repeat at 21 and 45 hr): maintained platelet counts above the level in mice that had received KKO alone

B1: heparinase 1: heparinase I (Sigma), enzyme used to pretreat platelets (protein, UniProt Q05819 22-384, looked up)
Heparin lyase I: QQKKSGNIPYRVNVQADSAKQKAIIDNKWVAVGINKPYALQYDDKLRFNGKPSYRFELKAEDNSLEGYAAGETKGRTELSYSYATTNDFKKFPPSVYQNAQKLKTVYHYGKGICEQGSSRSYTFSVYIPSSFPDNATTIFAQWHGAPSRTLVATPEGEIKTLSIEEFLALYDRMIFKKNIAHDKVEKKDKDGKITYVAGKPNGWKVEQGGYPTLAFGFSKGYFYIKANSDRQWLTDKADRNNANPENSEVMKPYSSEYKTSTIAYKMPFAQFPKDCWITFDVAIDWTKYGKEANTILKPGKLDVMMTYTKNKKPQKAHIVNQQEILIGRNDDDGYYFKFGIYRVGNSTVPVTYNLSGYSETAR
Effect of pretreating platelets on KKO binding [2]: not heparinase 1 alone (data not shown), decreased KKO binding

Source: patent US20070190582A1, “Platelet surface PF4 antigenic complexes as a diagnostic indicator in heparin-induced thrombocytopenia” (priority 2005, published 2007)
